The assay addresses T1, human vasopressin V1b receptor (Homo sapiens, UniProt P47901).
T1 construct: expressed in transfected cells; host or cells: CHO-K1 (cell line hV1b-3H2_CHO), membrane preparation
T1 sequence (P47901 1-424): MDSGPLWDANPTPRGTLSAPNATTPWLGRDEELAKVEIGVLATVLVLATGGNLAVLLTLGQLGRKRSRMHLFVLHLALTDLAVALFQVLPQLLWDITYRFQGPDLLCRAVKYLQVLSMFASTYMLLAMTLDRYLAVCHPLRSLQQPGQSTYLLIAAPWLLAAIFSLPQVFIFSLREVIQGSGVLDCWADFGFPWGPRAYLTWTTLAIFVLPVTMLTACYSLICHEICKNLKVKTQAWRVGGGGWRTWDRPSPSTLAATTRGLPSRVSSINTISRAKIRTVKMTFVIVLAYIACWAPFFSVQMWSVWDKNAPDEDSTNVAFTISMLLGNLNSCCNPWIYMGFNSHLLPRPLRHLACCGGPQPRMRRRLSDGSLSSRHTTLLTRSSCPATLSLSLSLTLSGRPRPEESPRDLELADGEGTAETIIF
The assay can be described thus: Vasopressin V1b receptor binding assay. As to conditions: membranes from CHO-K1 cells with stably expressed human V1b receptors; displacement of 1.5 nM 3H-AVP; read-out: V1b receptor affinity (affinity constant Ki). The method in brief: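 Ki values come from nonlinear regression of triplicate scintillation counts after filtration. Test compound (2% DMSO in the mixture) and radioligand were incubated 60 min at room temperature with human V1b membranes in pH 7.4 Tris buffer with 10 mM MgCl2 and 0.1% BSA. Nonspecific binding was set with 1 uM AVP.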

Each structure is given as a SMILES string. Some results are limits rather than exact numbers.

As usually defined, the Ki is a dissociation constant, usually derived from enzyme kinetics or from competition with a known ligand. On to `COc1ccc(S(=O)(=O)n2c(=O)n(C(C(=O)N3CCN(C4CCN(C)CC4)CC3)c3ccccc3)c3cc(Cl)c(Cl)cc32)c(OC)c1` (stereo not shown) [Example 69, 5,6-Dichloro-1-(2,4-dimethoxybenzenesulfonyl)-3-{2-[4-(1-methylpiperidin-4-yl)piperazin-1-yl]-2-oxo-1-phenyl-ethyl}-1,3-dihydrobenzimidazol-2-one], for which the Ki is 500 to 10000 nM.
The figure for `COc1ccc(S(=O)(=O)n2c(=O)n(C(C(=O)N3CCN(c4ccncc4)CC3)c3ccccc3)c3ccccc32)c(OC)c1` (stereo not shown) [Example 70, 1-(2,4-Dimethoxybenzenesulfonyl)-3-[2-oxo-1-phenyl-2-(4-pyridin-4-ylpiperazin-1-yl)ethyl]-1,3-dihydrobenzimidazol-2-one] is 500 to 10000 nM; for `CN1CCC(N2CCN(C(=O)C(c3ccccc3)n3c(=O)n(S(=O)(=O)c4cccc5cccnc45)c4cc(Cl)ccc43)CC2)CC1` (stereo not shown) [Example 71, 5-Chloro-1-{2-[4-(1-methylpiperidin-4-yl)piperazin-1-yl]-2-oxo-1-phenyl-ethyl}-3-(quinoline-8-sulfonyl)-1,3-dihydrobenzimidazol-2-one] it is 500 to 10000 nM; for `COc1ccc(S(=O)(=O)n2c(=O)n(C(C(=O)N3CCC(N4CCN(C)CC4)CC3)c3ccccc3)c3ccccc32)c(OC)c1` (stereo not shown) [Example 72, 1-(2,4-Dimethoxybenzenesulfonyl)-3-{2-[4-(4-methylpiperazin-1-yl)piperidin-1-yl]-2-oxo-1-phenylethyl}-1,3-dihydrobenzimidazol-2-one] it is 500 to 10000 nM.
In the case of `COc1ccc(S(=O)(=O)n2c(=O)n(C(C(=O)N3CCN(c4ccncc4)CC3)c3ccccc3)c3ccc(Cl)cc32)cc1` (stereo not shown) [Example 73, 5-Chloro-3-(4-methoxybenzenesulfonyl)-1-[2-oxo-1-phenyl-2-(4-pyridin-4-ylpiperazin-1-yl)-ethyl]-1,3-dihydrobenzimidazol-2-one] it was 100 to 500 nM; in that of `CCCN1CCN(C2CCN(C(=O)C(c3ccccc3)n3c(=O)n(S(=O)(=O)c4ccc(OC)cc4)c4cc(Cl)ccc43)C2)CC1` (stereo not shown) [Example 74, 5-Chloro-3-(4-methoxybenzenesulfonyl)-1-{2-oxo-1-phenyl-2-[3-(4-propylpiperazin-1-yl)-pyrrolidin-1-yl]ethyl}-1,3-dihydrobenzimidazol-2-one], under 100 nM.
For `CCCN1CCN(C2CCN(C(=O)C(C)n3c(=O)n(S(=O)(=O)c4ccc(OC)cc4)c4ccc(Cl)cc43)C2)CC1` (stereo not shown) [Example 75, 5-Chloro-1-(4-methoxybenzenesulfonyl)-3-{1-methyl-2-oxo-2-[3-(4-propylpiperazin-1-yl)-pyrrolidin-1-yl]ethyl}-1,3-dihydrobenzimidazol-2-one], the Ki fell in the range of 100 to 500 nM.
The figure for `CCCN1CCN(C2CCN(C(=O)C(c3ccccc3OC)n3c(=O)n(S(=O)(=O)c4ccc(OC)cc4)c4ccc(Cl)cc43)C2)CC1` (stereo not shown) [Example 76, 5-Chloro-1-(4-methoxybenzenesulfonyl)-3-{1-(2-methoxyphenyl)-2-oxo-2-[3-(4-propylpiperazin-1-yl)pyrrolidin-1-yl]ethyl}-1,3-dihydrobenzimidazol-2-one] is under 100 nM.
In the case of `CCCN1CCN(C2CCN(C(=O)C(c3ccc(OC)cc3)n3c(=O)n(S(=O)(=O)c4ccc(OC)cc4)c4ccc(Cl)cc43)C2)CC1` (stereo not shown) [Example 78, 5-Chloro-1-(4-methoxybenzenesulfonyl)-3-{1-(4-methoxyphenyl)-2-oxo-2-[3-(4-propylpiperazin-1-yl)pyrrolidin-1-yl]ethyl}-1,3-dihydrobenzimidazol-2-one] it was under 100 nM; in that of `CCCN1CCN(C2CCN(C(=O)C(c3cccc(OC)c3)n3c(=O)n(S(=O)(=O)c4ccc(OC)cc4)c4ccc(Cl)cc43)C2)CC1` (stereo not shown) [Example 79, 5-Chloro-1-(4-methoxybenzenesulfonyl)-3-{1-(3-methoxyphenyl)-2-oxo-2-[3-(4-propylpiperazin-1-yl)pyrrolidin-1-yl]-ethyl}-1,3-dihydrobenzimidazol-2-one], under 100 nM; in that of `CCCN1CCN(C2CCN(C(=O)C(c3ccccc3)n3c(=O)n(S(=O)(=O)c4ccc(OC)cc4)c4ccc(I)cc43)C2)CC1` (stereo not shown) [Example 80, 5-Iodo-1-(4-methoxybenzenesulfonyl)-3-{2-oxo-1-phenyl-2-[3-(4-propylpiperazin-1-yl)pyrrolidin-1-yl]ethyl}-1,3-dihydrobenzimidazol-2-one], under 100 nM.
On to `CCCN1CCN(C2CCN(C(=O)C(Cc3ccccc3)n3c(=O)n(S(=O)(=O)c4ccc(OC)cc4)c4ccc(Cl)cc43)C2)CC1` (stereo not shown) [Example 81, 3-{1-Benzyl-2-oxo-2-[3-(4-propylpiperazin-1-yl)pyrrolidin-1-yl]ethyl}-5-chloro-1-(4-methoxybenzenesulfonyl)-1,3-dihydrobenzimidazol-2-one], for which the Ki was in the range of 100 to 500 nM.
`COc1ccc(S(=O)(=O)n2c(=O)n(C(C(=O)N3CCN(c4ccccn4)CC3)c3ccccc3)c3cc(Cl)ccc32)cc1` (stereo not shown) [Example 82, 5-Chloro-1-(4-methoxybenzenesulfonyl)-3-[2-oxo-1-phenyl-2-(4-pyridin-2-ylpiperazin-1-yl)ethyl]-1,3-dihydrobenzimidazol-2-one]: the Ki lay in the range of 500 to 10000 nM.
The figure for `COc1ccc(S(=O)(=O)n2c(=O)n(C(C(=O)N3CCCC3c3ccccc3)c3ccccc3)c3cc(Cl)ccc32)cc1` (stereo not shown) [Example 83, 5-Chloro-1-(4-methoxybenzenesulfonyl)-3-[2-oxo-1-phenyl-2-(2-phenylpyrrolidin-1-yl)ethyl]-1,3-dihydrobenzimidazol-2-one] is 500 to 10000 nM; for `COc1ccc(S(=O)(=O)n2c(=O)n(C(C(=O)N3CCC3)c3ccccc3)c3cc(Cl)ccc32)cc1` (stereo not shown) [Example 84, 3-(2-Azetidin-1-yl-2-oxo-1-phenylethyl)-5-chloro-1-(4-methoxybenzenesulfonyl)-1,3-dihydrobenzimidazol-2-one] it is 500 to 10000 nM; for `COc1ccc(S(=O)(=O)n2c(=O)n(CC(=O)N3CCN(C)CC3)c3cc(Cl)ccc32)cc1` [Example 85, 5-Chloro-1-(4-methoxybenzenesulfonyl)-3-[2-(4-methylpiperazin-1-yl)-2-oxoethyl]-1,3-dihydrobenzimidazol-2-one] it is 500 to 10000 nM.
In the case of `COc1ccc(S(=O)(=O)n2c(=O)n(CC(=O)N3CCN(C4CCN(C)CC4)CC3)c3cc(Cl)ccc32)cc1` [Example 86, 5-Chloro-1-(4-methoxybenzenesulfonyl)-3-{2-[4-(1-methylpiperidin-4-yl)piperazin-1-yl]-2-oxoethyl}-1,3-dihydrobenzimidazol-2-one] it was 500 to 10000 nM; in that of `COc1ccc(S(=O)(=O)n2c(=O)n(CC(=O)N3CCCCC3)c3cc(Cl)ccc32)cc1` [Example 87, 5-Chloro-1-(4-methoxybenzenesulfonyl)-3-(2-oxo-2-piperidin-1-yl-ethyl)-1,3-dihydrobenzimidazol-2-one], 500 to 10000 nM.
In the case of `COc1ccc(S(=O)(=O)n2c(=O)n(C(C(=O)N3CCC(n4ccnc4)CC3)c3ccccc3)c3cc(Cl)ccc32)cc1` (stereo not shown) [Example 88, 5-Chloro-3-[2-(4-imidazol-1-ylpiperidin-1-yl)-2-oxo-1-phenylethyl]-1-(4-methoxybenzenesulfonyl)-1,3-dihydrobenzimidazol-2-one], the Ki was 500 to 10000 nM.
In the case of `COc1ccc(S(=O)(=O)n2c(=O)n(C(C(=O)N3CCN(c4ncncn4)CC3)c3ccccc3)c3cc(Cl)ccc32)cc1` (stereo not shown) [Example 89, 5-Chloro-1-(4-methoxybenzenesulfonyl)-3-[2-oxo-1-phenyl-2-(4-[1,3,5]triazin-2-ylpiperazin-1-yl)-ethyl]-1,3-dihydrobenzimidazol-2-one] it was 500 to 10000 nM; in that of `COc1ccc(S(=O)(=O)n2c(=O)n(CC(=O)N3CCCC3)c3cc(Cl)ccc32)cc1` [Example 90, 5-Chloro-1-(4-methoxybenzenesulfonyl)-3-(2-oxo-2-pyrrolidin-1-yl-ethyl)-1,3-dihydrobenzimidazol-2-one], 500 to 10000 nM.
Regarding `CCCN1CCN(C2CCN(C(=O)C(c3ccccc3)n3c(=O)n(S(=O)(=O)c4ccc(OC)cc4)c4ccc(Cl)cc43)C2)CC1` (stereo not shown) [Example 91, 5-Chloro-1-(4-methoxybenzenesulfonyl)-3-{2-oxo-1-phenyl-2-[3-(4-propylpiperazin-1-yl)-pyrrolidin-1-yl]ethyl}-1,3-dihydrobenzimidazol-2-one], the Ki is under 100 nM.
`COc1ccc(S(=O)(=O)n2c(=O)n(C(C(=O)N3CCC(c4ccncc4)C3)c3ccccc3)c3cc(Cl)ccc32)cc1` (stereo not shown) [Example 92, 5-Chloro-1-(4-methoxybenzenesulfonyl)-3-[2-oxo-1-phenyl-2-(3-pyridin-4-yl-pyrrolidin-1-yl)ethyl]-1,3-dihydrobenzimidazol-2-one]: the Ki fell in the range of 100 to 500 nM.
In the case of `COc1ccc(S(=O)(=O)n2c(=O)n(C(C(=O)N3CCCC3C(=O)N(C)C)c3ccccc3)c3cc(Cl)ccc32)cc1` (stereo not shown) [Example 93, 1-{2-[6-Chloro-3-(4-methoxybenzenesulfonyl)-2-oxo-2,3-dihydrobenzimidazol-1-yl]-2-phenylacetyl}pyrrolidine-2-dimethylcarboxamide] it was 100 to 500 nM; in that of `COc1ccc(S(=O)(=O)n2c(=O)n(C(C(=O)N3CCN(c4cccnc4)CC3)c3ccccc3)c3cc(Cl)ccc32)cc1` (stereo not shown) [Example 94, 5-Chloro-1-(4-methoxybenzenesulfonyl)-3-[2-oxo-1-phenyl-2-(4-pyridin-3-ylpiperazin-1-yl)ethyl]-1,3-dihydrobenzimidazol-2-one], 500 to 10000 nM.

(Values after patent US8791148B2, “Substituted benzimidazolone derivatives, medicaments comprising them and their use” (AbbVie Deutschland GmbH & Co. KG, priority 2006, dated 2014).)
